According to patent US8686043B2, “Heterocyclic sulfonamides, uses and pharmaceutical compositions thereof” (Pfizer Inc., priority 2009, dated 2014):
pEC50: −log10 of the molar value.

System: AMPA receptors
Assay: AMPA ES Cell FLIPR Screen (AMPA Potentiator Assay)
Format: cell-based, murine
Settings: ES cell-derived neurons, FLIPR (Fluo-4), 32 μM AMPA challenge; values marked * are the geometric mean of 2-5 EC50 determinations
Excerpt: Growth and Maintenance of ES Cells
Murine ES cell line E14, with a targeted mutation in the Sox1 gene and a neuroectodermal marker that offers G418 resistance when the Sox1 gene is expressed (Stem Cell Sciences, West Mains Road, Edinburgh, Scotland EH9 3JQ) may be used in all experiments. ES cells may be maintained undifferentiated as previously described (Methods For The Isolation And Maintenance Of Murine Embryonic Stem Cells; Roach-M-L, McNeish-J-D., Methods in Molecular Biology, 185, 1-16 (2002)). Briefly, ES cells may be grown in stem cell culture media comprising a base medium of Knockout™ D-MEM (Invitrogen 5791 Van Allen Way, Carlsbad, Calif. USA 92008), supplemented with 15% ES qualified Fetal Bovine Serum (FBS) (Invitrogen), 0.2 mM L-Glutamine (Invitrogen), 0.1 mM MEM non-essential amino acids (Invitrogen), 30 μg/ml Gentamicin […] (Invitrogen), 1000 U/ml ESGRO™ (CHEMICON International, Inc., 28820 Single Oak Drive, Temecula, Calif. 92590) and 0.1 mM 2-mercaptoethanol (Sigma, 3050 Spruce St., St. Louis, Mo. 63103). ES cells may then be plated on gelatin-coated dishes (BD Biosciences, 2350 Qume Drive, San Jose, Calif. 95131), wherein the media is changed daily and the cells dissociated with 0.05% Trypsin EDTA (Invitrogen) every other day.
Neural In Vitro Differentiation of ES Cells
Embryoid Body Formation: Prior to embryoid body (EB) formation the ES cells may be weaned from FBS onto Knockout Serum Replacement™ (KSR) (Invitrogen). To form EBs, ES cells may be dissociated into a single cell suspension, then 3×10^6 cells plated in bacteriology dishes (Nunc 4014) and grown as a suspension culture in NeuroEB-I medium that consisted of Knockout™ D-MEM (Invitrogen), supplemented with 10% KSR (Invitrogen), 0.2 mM L-Glutamine (Invitrogen), 0.1 mM MEM non-essential amino acids (Invitrogen), 30 μg/ml Gentamicin (Invitrogen), 1000 U/ml ESGRO™ (CHEMICON International, Inc.), 0.1 mM 2-mercaptoethanol (Sigma) and 150 ng/ml Transferrin (Invitrogen). The plates may then be put on a Stovall Belly Button™ shaker in an atmospheric oxygen incubator. The media may be changed on day 2 of EB formation with NeuroEB-I and on day 4 with NeuroEB-II (NeuroEB-I plus 1 μg/ml mNoggin (R&D Systems, 614 McKinley Place N.E. Minneapolis, Minn. 55413)
Neuronal Precursor Selection and Expansion: On day 5 of EB formation, EBs may be dissociated with 0.05% Trypsin EDTA, and 4×10^6 cells/100 mm dish may then be plated on Laminin coated tissue culture dishes in NeuroEB-II-G418 medium that consisted of a base medium of a 1:1 mixture of D-MEM/F12 supplemented with N2 supplements and NeuroBasal Medium supplemented with B27(I ASSUME THIS IS THE VITAMIN) supplement and 0.1 mM L-Glutamine (all from Invitrogen). The base medium may then be supplemented with 10 ng/ml bFGF (Invitrogen), 1 μg/ml mNoggin, 500 ng/ml SHH-N (IS THIS SONIC HEDGEHOG FROM ProSpecBio Rehovot Science Park, P.O. BOX 398, Rehovot 76103, Israel), 100 ng/ml FGF-8b (R&D Systems), 1 μg/ml Laminin and 200 μg/ml G418 (Invitrogen) for selection of neuronal precursors expressing Sox-1. The plates may then be put in an incubator containing 2% oxygen and maintained in these conditions. During the 6-day selection period, the NeuroEB-II ([…]) media should be changed daily. On day 6, the surviving neuronal precursor foci may then be dissociated with 0.05% Trypsin EDTA and the cells plated at a density of 1.5×10^6 cells/100 mm Laminin coated dish in Neuroll ([…])-G418 medium. The cells may then be dissociated every other day for expansion, and prepared for cryopreservation at passage 3 or 4. The cryopreservation medium typically contains 50% KSR, 10% dimethyl sulfoxide (DMSO) (Sigma) and 40% Neurol([…])-G418 medium. Neuronal precursors may be cryopreserved at a concentration of 4×10^6 cells/ml and 1 ml/cryovial in a controlled rate freezer overnight then transferred to an ultra-low freezer or liquid nitrogen for long-term storage. […]

| pEC50 | SMILES |
| --- | --- |
| 5.48 | CC(=O)NC1CCN(c2ccc(O[C@@H]3COC[C@H]3NS(=O)(=O)C(C)C)cc2)C1 (mixture of isomers) [Example 1, N-{1-[4-trans-({4-[(isopropylsulfonyl)amino]tetrahydrofuran-3-yl}oxy)phenyl]pyrrolidin-3-yl}acetamide] |
| 5.54 | CCOc1ccccc1-c1ccc(O[C@@H]2COC[C@H]2NS(=O)(=O)C(C)C)cc1 (racemic) [Example 8, trans-N-{4-[(2′-ethoxybiphenyl-4-yl)oxy]tetrahydrofuran-3-yl}propane-2-sulfonamide.] |
| 5.59 | CC(C)S(=O)(=O)N[C@H]1COC[C@H]1Oc1ccc(-c2ccc(C#N)s2)nc1 (racemic) [Example 23, cis-N-[4-{[6-(5-cyano-2-thienyl)pyridin-3-yl]oxy}tetra hydrofuran-3-yl]propane-2-sulfonamide] |
| 5.35 | CC(C)S(=O)(=O)N[C@H]1COC[C@H]1Oc1ccc(-c2ccc(N(C)C)nc2)cc1 (racemic) [Example 43, cis-N-[4-{4-[6-(dimethyl-amino)-pyridin-3-yl]phenoxy}-tetrahydrofuran-3-yl]propane-2-sulfonamide] |
| 5.57 | CC(C)S(=O)(=O)N[C@H]1COC[C@H]1Oc1ccc(-c2ccccc2C(F)(F)F)cc1 (racemic) [Example 44, cis-N-[4-{[2′-(trifluoro-methyl)-biphenyl-4-yl]oxy}-tetrahydrofuran-3-yl]propane-2-sulfonamide] |
| 5.59 | Cc1ccc(-c2ccc(O[C@@H]3COC[C@@H]3NS(=O)(=O)C(C)C)cc2)cc1 (racemic) [Example 45, cis-N-{4-[(4′-methylbiphenyl-4-yl)oxy]-tetrahydrofuran-3-yl}propane-2-sulfonamide] |
| 5.42 | CC(C)S(=O)(=O)N[C@H]1COC[C@H]1Oc1ccc(-c2cccc(C(F)(F)F)c2)cc1 (racemic) [Example 47, cis-N-[4-{[3′-(trifluoromethyl)biphenyl-4-yl]oxy}tetrahydrofuran-3-yl]propane-2-sulfonamide] |
| 6.20 | CC(C)S(=O)(=O)N[C@H]1COC[C@H]1Oc1ccc(-c2ccncc2)cc1 (racemic) [Example 48, cis-N-[4-(4-pyridin-4-ylphenoxy)tetrahydrofuran-3-yl]propane-2-sulfonamide] |
| 6.34 | CC(C)S(=O)(=O)N[C@H]1COC[C@H]1Oc1ccc(-c2cccc3ncccc23)cc1 (racemic) [Example 50, cis-N-[4-(4-quinolin-5-ylphenoxy)tetrahydrofuran-3-yl]propane-2-sulfonamide] |
| 5.90 | CC(C)S(=O)(=O)N[C@H]1COC[C@H]1Oc1ccc(-c2cccc3cnccc23)cc1 (racemic) [Example 52, cis-N-[4-(4-isoquinolin-5-ylphenoxy)tetrahydrofuran-3-yl]propane-2-sulfonamide] |
| 5.21 | CC(C)S(=O)(=O)N[C@@H]1COC[C@@H]1Oc1ccc(-c2ccc(C#N)cc2)cc1 (relative stereo) [Example 9, cis-N-{4-[(4′-cyanobiphenyl-4-yl)oxy]tetra hydrofuran-3-yl}propane-2-sulfonamide] |
| 5.94 | CC(C)S(=O)(=O)N[C@@H]1COC[C@@H]1Oc1ccc(-c2cccnc2)cc1 (relative stereo) [Example 10, cis-N-[4-(4-pyridin-3-ylphenoxy)tetrahydrofuran-3-yl]propane-2-sulfonamide] |
| 6.16 | CC(C)S(=O)(=O)N[C@@H]1COC[C@@H]1Oc1ccc(-c2cccs2)cc1 (relative stereo) [Example 11, cis-N-{4-[4-(2-thienyl)phenoxy]tetrahydrofuran-3-yl}propane-2-sulfonamide] |
| 5.96 | CC(C)S(=O)(=O)N[C@@H]1COC[C@@H]1Oc1ccc(-c2ccc(F)nc2)cc1 (relative stereo) [Example 12, cis-N-{4-[4-(6-fluoropyridin-3-yl)phenoxy]tetrahydrofuran-3-yl}propane-2-sulfonamide] |
| 5.28 | COc1ccc(-c2ccc(O[C@H]3COC[C@H]3NS(=O)(=O)C(C)C)cc2)cn1 (relative stereo) [Example 13, cis-N-{4-[4-(6-methoxypyridin-3-yl)phenoxy]tetrahydrofuran-3-yl}propane-2-sulfonamide] |
| 5.63 | CC(C)S(=O)(=O)N[C@@H]1COC[C@@H]1Oc1ccc(-c2ccoc2)cc1 (relative stereo) [Example 14, cis-N-{4-[4-(3-furyl)phenoxy]tetrahydrofuran-3-yl}propane-2-sulfonamide] |
| 5.54 | CC(C)S(=O)(=O)N[C@@H]1COC[C@@H]1Oc1ccc(-c2cccnc2F)cc1 (relative stereo) [Example 15, cis-N-{4-[4-(2-fluoropyridin-3-yl)phenoxy]tetrahydrofuran-3-yl}propane-2-sulfonamide] |
| 6.28 | CC(C)S(=O)(=O)N[C@@H]1COC[C@@H]1Oc1ccc(-c2ccsc2)cc1 (relative stereo) [Example 24, cis-N-{4-[4-(3-thienyl)phenoxy]tetrahydrofuran-3-yl}propane-2-sulfonamide] |
| 5.17 | CC(C)S(=O)(=O)N[C@H]1COC[C@H]1Oc1ccc(-c2ccc(C(=O)N(C)C)cc2)cc1 (relative stereo) [Example 46, cis-4′-({4-[(isopropyl-sulfonyl)-amino]tetrahydrofuran-3-yl}oxy)-N,N-dimethyl-biphenyl-4-carboxamide] |
| 5.85 | CC(C)S(=O)(=O)N[C@H]1COC[C@H]1Oc1ccc(-c2ccccc2C(N)=O)cc1 (relative stereo) [Example 49, cis-4′-({4-[(isopropylsulfonyl)amino]tetrahydrofuran-3-yl}oxy)biphenyl-2-carboxamide] |
| 5.68 | CC(C)S(=O)(=O)N[C@H]1COC[C@H]1Oc1ccc(-c2ccccc2S(=O)(=O)NC(C)(C)C)cc1 (relative stereo) [Example 51, cis-N-tert-butyl-4′-({4-[(isopropylsulfonyl)amino]tetrahydrofuran-3-yl}oxy)biphenyl-2-sulfonamide] |
| 5.95 | CC(C)S(=O)(=O)N[C@H]1COC[C@H]1Oc1ccc(-c2cccc(C(N)=O)c2)cc1 (relative stereo) [Example 53, cis-4′-({4-[(isopropylsulfonyl)amino]tetrahydrofuran-3-yl}oxy) biphenyl-3-carboxamide] |
| > 8.00 | CC(C)S(=O)(=O)N[C@H]1COC[C@H]1Oc1ccc(-c2ccc(F)cc2C#N)cc1 (single isomer, unassigned) [Example 16] |
| 6.39 | CC(C)S(=O)(=O)N[C@H]1COC[C@H]1Oc1ccc(-c2ccc(F)cc2)cc1 (single isomer, unassigned) [Example 17] |
| 5.87 | CC(C)S(=O)(=O)N[C@H]1COC[C@H]1Oc1ccc(-c2ccccc2)cc1 [Example 2, N-[(3S,4S)-4-(biphenyl-4-yloxy)tetrahydrofuran-3-yl]propane-2-sulfonamide] |
| 7.66 | CC(C)S(=O)(=O)N[C@H]1COC[C@H]1Oc1ccc(-c2ccccc2C#N)cc1 [Example 3, N-{(3S,4S)-4-[(2′-cyanobiphenyl-4-yl)oxy]tetrahydrofuran-3-yl}propane-2-sulfonamide] |
| 5.75 | CC(C)S(=O)(=O)N[C@H]1COC[C@H]1Oc1ccc(-c2ccc(C#N)s2)cc1 [Example 4, N-{(3S,4S)-4-[4-(5-cyano-2-thienyl)phenoxy]tetrahydrofuran-3-yl}propane-2-sulfonamide] |
